Results: article PMC10518255, “A first-in-class pan-lysyl oxidase inhibitor impairs stromal remodeling and enhances gemcitabine response and survival in pancreatic cancer” (Nature Cancer, 2023)
Several values for one entry are separate records, joined by “and”; a condition that tells them apart may be missing. Identical values can stand only once.

Key:
[1] = test system: KPC CCs liver colonization; experiment: Intrasplenic model of liver colonization, late administration of treatment (established metastases); format: in vivo, mouse; details: for Quantification of metastases/mm2 (late administration): Figure 5F, intrasplenic liver colonization, individual animals; for metastatic burden in liver: treatment from day 4, established metastases
Description: Fig. 5 PXS-5505 administered in intrasplenic models of liver colonization. a, Schematic of the intrasplenic model of liver colonization with early administration of treatment. CCs were implanted into the spleen of BALB/c-Fox1nuAusb mice under anesthesia on day 0. Treatment with 0.9% saline (vehicle); twice-weekly Gem (100 mg kg^−1 i.p.) (Gem); daily PXS-5505 at 20 mg kg^−1 i.p. (PXS-5505) or daily PXS-5505 at 20 mg kg^−1 i.p. + twice-weekly Gem at 100 mg kg^−1 i.p. (PXS-5505 + Gem) was administered from day 1. At the end point (day 10) livers were collected and H&E-stained for scoring. Representative images of H&E-stained liver (taken from one biologically independent animal). Scale bar, 100 μm. b, Representative images of H&E-stained livers from each treatment group (n = 1 FOV taken from one biologically independent animal per group). Scale bars, 100 μm. c, Quantification of metastases per mm^2 (n = 9 biologically independent animals per group). Data are mean ± s.d. […] Data are mean ± s.d. Two-tailed P values were determined by an unpaired, nonparametric t-test with a Mann–Whitney U-test correction (comparison between two groups). e, Schematic of intrasplenic model of liver colonization with late administration of treatment. CCs were implanted into the spleen of BALB/c-Fox1nuAusb mice under anesthesia on day 0. Treatment with 0.9% saline (vehicle); twice-weekly Gem (100 mg kg^−1 i.p.) (Gem); daily PXS-5505 at 20 mg kg^−1 i.p. (PXS-5505); or daily PXS-5505 at 20 mg kg^−1 i.p. + three doses of Gem (100 mg kg^−1 i.p. (PXS-5505 + Gem) was administered from day 4. Representative images of H&E-stained liver (taken from one biologically independent animal). Scale bar, 100 μm. f, Quantification of metastases at endpoint (n = 10 biologically independent animals per treatment group, n = 5 biologically independent animals at day 4 for confirmation of overt metastases). Data are mean ± s.d. P values were determined by an unpaired, nonparametric t-test with a Mann–Whitney U-test correction (comparison between two groups). g, Representative images of H&E-stained livers from each treatment group. Scale bars, 100 μm. Source data
For the intrasplenic models, animals were randomized before receiving treatment. GLP-grade PXS-5505 (20 mg kg^−1) was administered daily i.p. (starting day 0 for the early stage and day 4 for the late stage) until the end point and gemcitabine (100 mg kg^−1) was administered on days 3, 6 and 9 for the early stage and days 5, 7 and 10 for the late stage. […]
The 4-µm formalin-fixed paraffin-embedded (FFPE) sections were cut and stained for H&E following standard histopathology methodologies or stained for CK19 using the Bond RX H2(30) protocol detailed above. […] The total number of liver metastases were quantified and determined using QuPath[57].

APMA human PDX tumors = experiment: APMA human PDX model, tumor volumes at end point (Extended Data Fig. 5g); format: in vivo, mouse; details: Extended Data 5G; second human PDX model after 3 cycles of treatment; individual animals
Description: Subcutaneous PDX studies were performed by implanting early passage PDX pieces (~4 mm^3) or TKCC10 CCs (1.5 × 10^6 cells per mouse in 100 μl PBS/Matrigel 1:1) into female (PDX) or male (TKCC10) 8-week-old immunocompromised nude Balb/c-Fox1nuAusb mice subcutaneously on the left flank. For the duration of the study, mice were kept in conventional caging with environmental enrichment, access to standard chow, water ad libitum and 12-h light–dark cycle at ambient temperature and humidity. Treatment began when tumors reached 150 mm^3, where each mouse was randomized into a treatment group and administered gemcitabine HCl (100 mg kg^−1 in saline) (Jomar Life Research) or vehicle control (0.9% saline) by i.p. injection twice weekly on day 2 and 4 of the treatment cycle until an ethical end point was reached. These included maximal tumor mass ≥10% of body weight, weight loss ≥20% from maximum body weight or tumor interfering with mobility and affecting access to food and water. Animals with non-tumor-related complications that led to a premature end point were censored. PXS-5505 (20 mg kg^−1 in saline) or vehicle (0.9% saline) was administered daily by i.p. injection. Tumor size was monitored every second day by calipers. Tumor volume was calculated using the formula (length × width^2)/2. At day 39, mice were killed via CO2 and cervical dislocation and tumors were collected and processed. […]

| SMILES | Quantification of metastases/mm2 (late administration) [1] | metastatic burden in liver [1] | Tumour volumes at endpoint (APMA human PDX tumors) |
| --- | --- | --- | --- |
| Nc1ccn([C@@H]2O[C@H](CO)[C@@H](O)C2(F)F)c(=O)n1 [Gem, gemcitabine] | 0.001632 metastases/mm2 and 0.001329 metastases/mm2 and 0.001736 metastases/mm2 and 0.001305 metastases/mm2 and 0.001793 metastases/mm2 and 0.001126 metastases/mm2 and 0.001529 metastases/mm2 and 0.001107 metastases/mm2 and 0.001352 metastases/mm2 and 0.001209 metastases/mm2 | did not significantly alter metastatic burden | 145.448 mm3 and 9.626 mm3 and 12.4718 mm3 and 45.315 mm3 and 3.952 mm3 and 50.8335 mm3 and 16.8359 mm3 and 29.7673 mm3 and 51.7185 mm3 and 16.7442 mm3 |
| Cl.Cl.NC/C=C(\F)CS(=O)(=O)c1cccc2cccnc12.O [PXS-5505, (Z)-3-fluoro-4-(quinolin-8-ylsulfonyl)but-2-en-1-amine dihydrochloride monohydrate] | 0.001672 metastases/mm2 and 0.001212 metastases/mm2 and 0.001664 metastases/mm2 and 0.001776 metastases/mm2 and 0.002261 metastases/mm2 and 0.001845 metastases/mm2 and 0.0007878 metastases/mm2 and 0.001204 metastases/mm2 and 0.001477 metastases/mm2 and 0.001663 metastases/mm2 | did not significantly alter metastatic burden | 111.838 mm3 and 144.188 mm3 and 186.048 mm3 and 277.687 mm3 and 285.67 mm3 and 63.9218 mm3 and 265.041 mm3 and 180.58 mm3 and 65.1463 mm3 |
